Measured values from ChEMBL document CHEMBL1201862, “PubChem BioAssay data set” (2004).
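Five concentrations, 48 hours, 96-well plates. At the GI50, growth is halved.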 Calls of active or inactive are those of the source. No stated cut-off is given here; in the data, active = GI50 up to about 1.1 µM and inactive = higher.

Key:
Test in all cases: DTP human tumour cell line panel, 48 h
MCF7 = tested on: MCF7
HOP-62 = tested on: HOP-62
RPMI-8226 = tested on: RPMI-8226
Malme-3M = tested on: Malme-3M
SN12C = tested on: SN12C
NCI-H226 = tested on: NCI-H226
SNB-19 = tested on: SNB-19
Hs-578T = tested on: Hs-578T
LOX IMVI = tested on: LOX IMVI
RXF 393 = tested on: RXF 393
IGROV-1 = tested on: IGROV-1
MDA-MB-435 = tested on: MDA-MB-435
HL-60 = tested on: HL-60
OVCAR-5 = tested on: OVCAR-5
SK-MEL-5 = tested on: SK-MEL-5
KM12 = tested on: KM12
A549 = tested on: A549
HOP-92 = tested on: HOP-92
NCI/ADR-RES = tested on: NCI/ADR-RES
UACC-257 = tested on: UACC-257
CAKI-1 = tested on: CAKI-1
786-0 = tested on: 786-0
T47D = tested on: T47D
TK-10 = tested on: TK-10
SF-295 = tested on: SF-295
SF-268 = tested on: SF-268
DU-145 = tested on: DU-145
SR = tested on: SR
UO-31 = tested on: UO-31
OVCAR-8 = tested on: OVCAR-8
SW-620 = tested on: SW-620
ACHN = tested on: ACHN
NCI-H23 = tested on: NCI-H23
SNB-75 = tested on: SNB-75
BT-549 = tested on: BT-549
SF-539 = tested on: SF-539
A498 = tested on: A498
SK-OV-3 = tested on: SK-OV-3
M14 = tested on: M14
HT-29 = tested on: HT-29
MDA-N = tested on: MDA-N
SK-MEL-2 = tested on: SK-MEL-2
COLO 205 = tested on: COLO 205
HCT-116 = tested on: HCT-116
EKVX = tested on: EKVX
UACC-62 = tested on: UACC-62
K562 = tested on: K562
HCT-15 = tested on: HCT-15
NCI-H522 = tested on: NCI-H522
MOLT-4 = tested on: MOLT-4
CCRF-CEM = tested on: CCRF-CEM
OVCAR-3 = tested on: OVCAR-3
NCI-H460 = tested on: NCI-H460
OVCAR-4 = tested on: OVCAR-4
U-251 = tested on: U-251
SK-MEL-28 = tested on: SK-MEL-28
HCC 2998 = tested on: HCC 2998
PC-3 = tested on: PC-3

Measured: GI50

Cc1ccc2[nH]c3[nH]c(=O)[nH]c(=O)c3c2c1
inactive: MCF7 > 100 µM | HOP-62 > 100 µM | RPMI-8226 > 100 µM | Malme-3M > 100 µM | SN12C > 100 µM | NCI-H226 > 100 µM | SNB-19 > 100 µM | Hs-578T > 100 µM | LOX IMVI > 100 µM | RXF 393 > 100 µM | IGROV-1 > 100 µM | MDA-MB-435 > 100 µM | HL-60 > 100 µM | OVCAR-5 > 100 µM | SK-MEL-5 > 100 µM | KM12 43.6 µM | A549 > 100 µM | HOP-92 > 100 µM | NCI/ADR-RES > 100 µM | UACC-257 > 100 µM | CAKI-1 > 100 µM | 786-0 > 100 µM | T47D > 100 µM | TK-10 > 100 µM | SF-295 58.3 µM | SF-268 > 100 µM | DU-145 > 100 µM | SR > 10 µM | UO-31 > 100 µM | OVCAR-8 > 100 µM | SW-620 > 100 µM | ACHN > 100 µM | NCI-H23 > 100 µM | SNB-75 > 100 µM | BT-549 > 100 µM | SF-539 > 100 µM | A498 > 100 µM | SK-OV-3 > 100 µM | M14 > 100 µM | HT-29 > 100 µM | MDA-N > 100 µM | SK-MEL-2 > 100 µM | COLO 205 > 100 µM | HCT-116 > 100 µM | EKVX > 100 µM | UACC-62 > 100 µM | K562 > 100 µM | NCI-H522 > 100 µM | MOLT-4 > 100 µM | CCRF-CEM > 100 µM | OVCAR-3 > 100 µM
> 100 µM: HCT-15

CC(=O)N1CCc2c([nH]c3ccc(Br)cc23)C1c1ccccc1 (stereo not drawn)
0.194 µM: HCT-15
inactive: MCF7 2.75 µM | HOP-62 7.55 µM | RPMI-8226 2.29 µM | Malme-3M > 10 µM | NCI-H226 > 10 µM | SNB-19 > 10 µM | Hs-578T > 10 µM | LOX IMVI 2 µM | RXF 393 > 10 µM | IGROV-1 > 7.33 µM | MDA-MB-435 2.69 µM | HL-60 2.55 µM | OVCAR-5 > 10 µM | SK-MEL-5 2.4 µM | KM12 > 3.41 µM | HOP-92 > 10 µM | NCI/ADR-RES 4.16 µM | UACC-257 > 10 µM | CAKI-1 > 9.53 µM | 786-0 3.28 µM | OVCAR-4 > 10 µM | T47D > 10 µM | U-251 3.69 µM | SK-MEL-28 > 10 µM | TK-10 > 10 µM | SF-295 2.4 µM | SF-268 > 9.02 µM | DU-145 > 10 µM | UO-31 > 10 µM | OVCAR-8 > 5.07 µM | SW-620 2.62 µM | ACHN > 7.36 µM | SNB-75 7.96 µM | BT-549 7.03 µM | SF-539 > 6.81 µM | A498 > 10 µM | SK-OV-3 > 7.71 µM | M14 > 10 µM | HT-29 5.37 µM | MDA-N 2.61 µM | HCC 2998 9.95 µM | SK-MEL-2 > 10 µM | COLO 205 > 10 µM | EKVX > 10 µM | UACC-62 > 7.13 µM | NCI-H522 > 7.82 µM | CCRF-CEM 1.47 µM | OVCAR-3 > 10 µM
active: NCI-H460 0.522 µM | A549 0.912 µM | SR 0.733 µM | HCT-116 1.11 µM | K562 0.752 µM | PC-3 1.12 µM | MOLT-4 0.697 µM
